Tests used:
Test in all cases: relative viability (nuclei count vs DMSO), 5 days (fraction); higher = more cells survive
RU-SKI 43 + Palbociclib = compound: CC[C@@H](C)CNCC(=O)N1CCC2=C([C@@H]1COC3=CC=CC(=C3)C)C=CS2 [RU-SKI 43] + CC(=O)c1c(C)c2cnc(Nc3ccc(N4CCNCC4)cn3)nc2n(C2CCCC2)c1=O [Palbociclib] (partner 0.5 µM)
Outline: (§1)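 Medians of duplicate plates are given as relative viability. That measure is the nuclei count in treated wells divided by the count in vehicle wells. Counts were taken on 4× images of lung cancer cell lines in 1536-well plates, 5 days after pin-tool dosing the day after seeding with one drug alone or a fixed anchor-drug dose plus five library-drug doses (not always all listed) in √10 steps.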

Irinotecan + Phenformin = compound: CCc1c2c(nc3ccc(OC(=O)N4CCC(N5CCCCC5)CC4)cc13)-c1cc3c(c(=O)n1C2)COC(=O)[C@]3(O)CC [Irinotecan] + N=C(N)NC(=N)NCCc1ccccc1 [Phenformin] (partner 250 µM)
Outline: as §1

Irinotecan + Olaparib = compound: CCc1c2c(nc3ccc(OC(=O)N4CCC(N5CCCCC5)CC4)cc13)-c1cc3c(c(=O)n1C2)COC(=O)[C@]3(O)CC [Irinotecan] + O=C(c1cc(Cc2n[nH]c(=O)c3ccccc23)ccc1F)N1CCN(C(=O)C2CC2)CC1 [Olaparib] (partner 8 µM)
Outline: as §1

MK-8033 + Phenformin = compound: Cn1cc(-c2cnc3ccc4ccc(CS(=O)(=O)NCc5ccccn5)cc4c(=O)c3c2)cn1 [MK-8033] + N=C(N)NC(=N)NCCc1ccccc1 [Phenformin] (partner 250 µM)
Outline: as §1

Cell Line	relative viability (RU-SKI 43 + Palbociclib; first compound 0.1 µM)	relative viability (RU-SKI 43 + Palbociclib; first compound 0.3162 µM)	relative viability (RU-SKI 43 + Palbociclib; first compound 1 µM)	relative viability (RU-SKI 43 + Palbociclib; first compound 3.162 µM)	relative viability (RU-SKI 43 + Palbociclib; first compound 10 µM)	relative viability (Irinotecan + Phenformin; first compound 0.6325 µM)	relative viability (Irinotecan + Phenformin; first compound 2 µM)	relative viability (Irinotecan + Phenformin; first compound 6.325 µM)	relative viability (Irinotecan + Phenformin; first compound 20 µM)	relative viability (Irinotecan + Olaparib; first compound 0.6325 µM)	relative viability (Irinotecan + Olaparib; first compound 2 µM)	relative viability (Irinotecan + Olaparib; first compound 6.325 µM)	relative viability (Irinotecan + Olaparib; first compound 20 µM)	relative viability (MK-8033 + Phenformin; first compound 0.02 µM)	relative viability (MK-8033 + Phenformin; first compound 0.06325 µM)	relative viability (MK-8033 + Phenformin; first compound 0.2 µM)	relative viability (MK-8033 + Phenformin; first compound 0.6325 µM)	relative viability (MK-8033 + Phenformin; first compound 2 µM)
NCI-H1755	0.478	0.458	0.44	0.478	0.466	0.498	0.603	0.296	0.307	0.482	0.358	0.372	0.42	0.603	0.572	0.605	0.682	0.653
PC-14	0.575	0.668	0.798	0.451	0.401	–	0.661	0.242	0.155	0.129	0.163	0.167	0.123	0.605	0.472	0.508	0.524	0.564
NCI-H358	0.129	0.152	0.15	0.128	0.128	0.273	0.278	0.125	0.0851	0.215	0.286	0.158	0.109	0.369	0.296	0.296	0.307	0.318
LK-2	0.685	0.912	0.949	0.673	0.674	0.419	0.63	0.315	0.307	0.481	0.426	0.201	0.235	0.708	–	0.326	0.437	0.305
HCC-827	0.474	0.414	0.56	0.498	0.427	0.345	0.349	0.159	0.209	0.379	0.236	0.212	0.165	0.407	–	0.397	0.424	0.393
LCLC-97TM1	0.296	0.189	0.281	0.222	0.231	0.322	0.205	0.127	0.115	0.0852	0.144	0.0736	0.13	0.393	0.433	0.456	0.454	0.439
EMC-BAC-2	0.523	0.477	0.552	0.505	0.518	0.336	0.399	0.271	0.276	0.276	0.292	0.274	0.158	0.554	0.509	0.531	0.556	0.494
NCI-H647	0.472	0.371	0.382	0.471	0.287	0.463	0.644	0.161	0.104	0.194	0.205	0.14	0.0986	0.508	0.448	0.509	0.546	0.549
NCI-H1944	0.34	0.334	0.328	0.316	0.303	0.191	0.187	0.132	0.132	0.287	0.221	0.198	0.182	0.186	0.159	0.19	0.198	0.181
PC-3 [JPC-3]	0.534	0.479	0.561	0.558	0.343	0.424	0.472	0.318	0.349	0.766	0.908	0.448	0.221	0.482	0.426	0.469	0.475	0.503
SK-LU-1	0.386	0.386	0.403	0.416	0.354	0.429	0.35	0.276	0.283	0.312	0.265	0.29	0.218	0.519	0.505	0.518	0.497	0.53
NCI-H1975	0.642	0.626	0.669	0.541	0.352	0.407	0.448	0.296	0.194	0.797	0.935	0.323	0.193	0.409	0.417	0.405	–	0.364
HARA	0.233	0.205	0.281	0.28	0.233	0.351	0.157	0.11	0.113	0.466	0.405	0.2	0.262	0.477	0.406	0.396	0.374	0.422
H3255	0.313	0.316	0.331	0.32	0.301	0.343	0.337	0.344	0.331	0.464	0.446	0.343	0.362	0.341	0.364	0.335	0.326	0.37
NCI-H727	–	0.559	0.682	0.671	0.622	0.464	0.611	0.524	0.413	0.723	0.454	0.66	0.656	0.7	–	0.435	0.627	0.465
EKVX	0.332	0.319	0.336	0.379	0.353	0.216	0.185	0.224	0.151	–	0.539	0.275	0.224	0.222	0.211	0.238	0.22	0.254
NCI-H1666	0.66	0.63	0.707	0.609	0.64	0.511	0.529	0.425	0.424	0.672	0.726	0.654	0.671	0.588	0.598	0.548	0.612	0.527
NCI-H1915	0.51	0.543	0.559	0.541	0.525	0.268	0.27	0.2	0.195	0.151	0.186	0.144	0.115	0.356	0.315	0.373	0.391	0.376

Reference: the supplement of paper PMC10307832
